# pIC50: −log10 of the molar value. “Also recorded” adds a separate entry of the source.
# Key:
# [1] = test system: brain Aβ1-42; test: Rat time course PK/PD, oral dose, indirect response model; assay type: in vivo; conditions: for pIC50: po
# Method: (§1) Figure 8 Analysis of the PK/PD relationship for BMS-869780 in rats and mice. Rats were dosed orally with BMS-869780 at 10 mg/kg, and triple transgenic mice were orally dosed at 30 mg/kg and 100 mg/kg. Additional groups of rats and mice were dosed with vehicle alone. Brain and plasma were harvested at 3, 5, 8, 16, and 24 hours after dosing for determination of brain Aβ1-42 and plasma BMS-869780 concentration. Group sizes were 5 rats or 4 mice. Whiskers represent standard error. […] The data were fit to a one-compartment PK model and the predicted plasma BMS-869780 concentrations are shown for mouse (solid lines) and rat (broken line). […] The data were fitted using the indirect pharmacodynamic response model and predicted values are shown (solid lines). (c) Brain Aβ1-42 levels were determined for the rats dosed with BMS-869780 at 10 mg/kg (▼) or vehicle alone (●). The data were fitted using the indirect pharmacodynamic response model and predicted values are shown (dashed line). (d) Brain Aβ1-40 levels determined in the same rats as illustrated in (c).
# (§2) All experimental procedures with animals followed National Institutes of Health guidelines and were authorized by and in compliance with policies of the Bristol-Myers Squibb Animal Use and Care Committee. Mice and rats were housed with a 6:00 AM to 6:00 PM light/dark cycle and allowed free access to food and water. For 3xTg mice, BMS-869780 was dosed in three-month-old females by oral gavage at 6 mL/kg in vehicle consisting of 84% polyethylene glycol average molecular weight of 400 (PEG-400), 15% EtOH, and 1% Tween-80 (w/w/w). The compound was dissolved in EtOH and then diluted with PEG-400 and Tween, after which the vial was sealed, vortexed, and sonicated at 56°C for 1 hour. Animals were euthanized by asphyxiation in CO2. Blood was collected by cardiac puncture and placed into ethylene-diaminetetraacetic acid microtainer tubes for the preparation of plasma. The cerebellum was collected for the determination of compound concentration, and the remaining brain was separated into left and right halves before freezing in liquid nitrogen. For the rat time course study, 8- to 12-week-old female Sprague-Dawley rats were obtained from Charles River Laboratories (Wilmington, MA), BMS-869780 was dosed orally at 4 mL/kg, and brain and plasma samples were collected as described for the 3xTg mice. For the four day repeat dose rat study, BMS-869780 was given by oral gavage in vehicle consisting of PEG-400, PEG-200, D-α-tocopheryl polyethylene glycol succinate, Solutol HS 15, in the ratio 80 : 10 : 5 : 5 (w/w/w/w). Methods for the pharmacokinetics studies in rat, dog, and monkey are described below.
# (§3) The data generated in the mouse and rat time course experiments were analyzed sequentially by nonlinear regression (WinNonlin Pharsight Corporation, Mountain View, CA). The pharmacokinetic data were best described by a 1-compartment linear model with first-order absorption and elimination. Subsequently, the pharmacodynamic parameters were estimated from the BMS-869780 plasma concentrations and the observed reductions of brain Aβ1-42 or Aβ1-40 by fitting to the equation for inhibition of synthesis. The goodness-of-fit was determined by visual inspection, Akaike Information Criterion, Schwartz Criterion, examination of the residuals and the coefficient of variation of the parameter estimates.
# [2] = Triple transgenic (3xTg) mouse time course PK/PD, oral dose, indirect response model; assay type: in vivo; conditions: female, 3xTg (triple transgenic), plasma
# Method: as §1, §2, §3
# [3] = test system: brain Aβ1-42; test: as above; assay type: in vivo; conditions: for pIC50: po
# Method: as §1, §2, §3
# [4] = target: T1, pregnane-X-receptor (Homo sapiens, UniProt O75469); test: Pregnane-X-receptor transactivation assay (PXR-TA), luciferase reporter in HepG2 cells; assay type: cell-based
# T1 construct: host or cells: HepG2
# Method: (§4) Determination of IC50 values for inhibition of secreted alkaline phosphatase (SEAP) was carried out using an H4 cell line stably expressing SEAP. Cells were treated overnight with compounds in 384-well format, and SEAP accumulation in the culture media was quantified using a chemiluminescence substrate. The pregnane-X-receptor transactivation assay (PXR-TA) was based on the methods of Goodwin et al. as described previously. In the 4-day rat study with BMS-869780, tissues were fixed in 10% neutral buffered formalin, embedded in paraffin, sectioned, stained with hematoxylin and eosin, and examined by light microscopy.
# Figure 10 BMS-869780 caused PXR activation in vitro and lipidosis in rat liver. (a) PXR activation in the presence of BMS-869780 was evaluated in HepG2 cell cultures using a luciferase transcriptional reporter construct (●), or by assay of CYP3A4 mRNA levels in primary human hepatocyte (PHH) cultures from two individual donors (▲ and ▼). Activation in both assays is expressed as % relative to activation in the presence of rifampicin, 10 μM, in parallel cultures. (b) Liver section from vehicle-dosed rats. (c) Liver section from rats given 4 daily doses of BMS-869780 at 100 mg/kg.
# [5] = test system: duodenum, liver, and kidney; test: Histopathology in rat 4-day oral dosing experiment; assay type: in vivo
# Method: as §4
# As a preliminary evaluation of safety in vivo, male and female rats were given 10, 30, and 100 mg/kg BMS-869780 orally once daily for 4 days. Endpoints included brain Aβ1-42, as described above (Figures 7(d) and 7(e)), plasma PK on day 1 and day 3 (Table 4), and histopathology for duodenum, liver, and kidney.
# [6] = Rat 10 mg/kg PO solution (observed 0–24 hours)
# [7] = Mouse 30 mg/kg PO solution (observed 0–24 hours)
# [8] = Mouse 100 mg/kg PO solution (observed 0–24 hours)
# T1 sequence (O75469 whole entry): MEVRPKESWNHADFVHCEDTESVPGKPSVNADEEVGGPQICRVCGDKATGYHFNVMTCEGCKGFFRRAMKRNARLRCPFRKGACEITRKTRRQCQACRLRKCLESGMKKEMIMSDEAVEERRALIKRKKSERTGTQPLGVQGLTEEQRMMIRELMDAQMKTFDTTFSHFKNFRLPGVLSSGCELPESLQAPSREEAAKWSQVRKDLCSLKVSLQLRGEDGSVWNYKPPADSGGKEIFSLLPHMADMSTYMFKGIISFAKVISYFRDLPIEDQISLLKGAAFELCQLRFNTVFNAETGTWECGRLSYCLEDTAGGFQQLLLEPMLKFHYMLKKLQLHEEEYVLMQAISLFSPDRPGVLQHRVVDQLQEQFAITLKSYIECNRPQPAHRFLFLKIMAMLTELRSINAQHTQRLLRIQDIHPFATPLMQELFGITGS
structure (smiles),measurement,setting,value
COc1cc(Nc2nc3n(n2)CCCC[C@H]3c2ccc(F)cc2)ccc1-n1cnc(Cl)c1 [BMS-869780],Brain Aβ ABEC 24 hr Aβ1-40,[1]; [6],46.1%
same,Brain Aβ ABEC 24 hr Aβ1-42,[1]; [6],47.0%
same,pIC50,"[1]; Rattus norvegicus, read-out: in vivo plasma IC50 for brain Aβ1-42",5.72
same,pIC50,"[1]; rat, PD model, read-out: IC50 (plasma concentration required for 50% inhibition of Aβ production)",5.72
same,V/F,[1]; rat,1.94 L/kg
same,in vivo IC50 (corrected for protein binding) relative to in vitro IC50 for Aβ1-42,"[1]; rat and 3xTg mouse, M146V allele taken into account for mouse",≤ 2 fold
same,Ka1 (10 mg/kg),"[1]; rat, 10 mg/kg oral",0.19 h⁻¹
same,K in,"[1]; rat, calculated",48 %/h
same,K OUT,"[1]; rat, rate constant for degradation of Aβ",0.48 h⁻¹
same,k el,"[2]; oral, mouse, 1-compartment PK model",7.78e-05 s⁻¹
same,AUC(0-t),[2]; [7],45.9 µM·h
same,AUC(0-t),[2]; [8],102 µM·h
same,Brain Aβ ABEC 24 hr Aβ1-42,[3]; [7],30.9%
same,Brain Aβ ABEC 24 hr Aβ1-42,[3]; [8],55.1%
same,V/F,[3]; mouse,1.94 L/kg
same,Ka1 (30 mg/kg),"[3]; mouse, 30 mg/kg oral",0.11 h⁻¹
same,Ka2 (100 mg/kg),"[3]; mouse, 100 mg/kg oral",0.046 h⁻¹
same,K in,"[3]; mouse, calculated",72 %/h
same,K OUT,"[3]; mouse, rate constant for degradation of Aβ",0.72 h⁻¹
same,pIC50,"[3]; mouse, PD model, read-out: IC50 (plasma concentration required for 50% inhibition of Aβ production)",5.40
same,pIC50,"[3]; mouse, read-out: in vivo plasma IC50 for brain Aβ1-42",5.40
same,activity in PXR-TA,[4],robust activity
same,concentrations at which PXR transcription was activated,"[4]; HepG2 luciferase reporter, relative to rifampicin 10 μM",≥ 300 nM
same,duodenum and kidney histology,"[5]; 10, 30 and 100 mg/kg orally once daily for 4 days",unchanged at all dose levels
same,liver histology,"[5]; at all doses (10, 30, 100 mg/kg once daily for 4 days)",macro- and microvesicular vacuolar degeneration
same,separation of hepatotoxicity from Aβ1-42 lowering exposure benchmarks,[5]; lipidosis after four daily doses of 10 mg/kg,no separation of hepatotoxicity
same,Notch-related effect in duodenum,[5]; up to 100 mg/kg once daily for 4 days,no Notch-related effect on differentiation in the duodenum; also recorded: did not cause any histological change in duodenum
